Where a name gives a salt, the structure may show the parent alone. Read-outs that look alike come from different tables or passages of the source.

The assay has as its system HT-29 cells. The assay can be described thus: HT-29 necroptosis cell viability assay (TNF-α/SMAC mimetic/zVAD-FMK, CellTiter-Glo). Type of assay: cell-based. To be noted: HT-29 cells stimulated with TNF-α (10 ng/ml), SMAC mimetic (6 μM) and zVAD-FMK (10 μM), 20 hours, CellTiter-Glo ATP luminescence, geometric mean IC50 from 10 points, read-out: Activity. Summed up:
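Necroptosis was triggered by TNF-α (10 ng/ml), SMAC mimetic (6 μM) and zVAD-FMK (10 μM) in serum-free medium during 20 h compound exposure (10 concentrations, threefold steps) of HT-29 cells. IC50 from duplicate dose-responses uses CellTiter-Glo ATP luminescence as viability read-out.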
A general note: Cellular ATP, detected with luciferase, serves as a proxy for viable cell number.

For the compound `Cc1nc(N2C[C@H](F)[C@@H]2C)sc1Oc1ccc(-n2ncn(Cc3c(F)cccc3F)c2=O)cc1` [Example 51, 4-(2,6-difluorobenzyl)-2-(4-((2-((2S,3S)-3-fluoro-2-methylazetidin-1-yl)-4-methylthiazol-5-yl)oxy)phenyl)-2,4-dihydro-3H-1,2,4-triazol-3-one], the IC50 (Homo sapiens) was under 100 nM.
On the same count and under the same terms, to `Cc1nc(N2CC([C@H](C)O)C2)sc1Oc1ccc(-n2ncn(Cc3c(F)cccc3F)c2=O)cc1` [Example 52, (S)-4-(2,6-difluorobenzyl)-2-(4-((2-(3-(1-hydroxyethyl)azetidin-1-yl)-4-methylthiazol-5-yl)oxy)phenyl)-2,4-dihydro-3H-1,2,4-triazol-3-one] belongs under 100 nM; to `Cc1nc(N2CC(C#N)C2)sc1Oc1ccc(-n2ncn(Cc3c(F)cccc3F)c2=O)cc1` [Example 53, 1-(5-(4-(4-(2,6-difluorobenzyl)-5-oxo-4,5-dihydro-1H-1,2,4-triazol-1-yl)phenoxy)-4-methylthiazol-2-yl)azetidine-3-carbonitrile], under 100 nM; to `Cc1nc(N2CCC(C#N)C2)sc1Oc1ccc(-n2ncn(Cc3c(F)cccc3F)c2=O)cc1` (stereo not shown) [Example 54, 1-(5-(4-(4-(2,6-difluorobenzyl)-5-oxo-4,5-dihydro-1H-1,2,4-triazol-1-yl)phenoxy)-4-methylthiazol-2-yl)pyrrolidine-3-carbonitrile], under 100 nM.
Still for that read-out and setting: the figure for `COC1(C#N)CN(c2nc(C)c(Oc3ccc(-n4ncn(Cc5c(F)cccc5F)c4=O)cc3)s2)C1` [Example 55, 1-(5-(4-(4-(2,6-difluorobenzyl)-5-oxo-4,5-dihydro-1H-1,2,4-triazol-1-yl)phenoxy)-4-methylthiazol-2-yl)-3-methoxyazetidine-3-carbonitrile] is under 100 nM; for `Cc1nc(N2CCOC2=O)sc1Oc1ccc(-n2ncn(Cc3c(F)cccc3F)c2=O)cc1F` [Example 56, 3-(5-(4-(4-(2,6-difluorobenzyl)-5-oxo-4,5-dihydro-1H-1,2,4-triazol-1-yl)-2-fluorophenoxy)-4-methylthiazol-2-yl)oxazolidin-2-one] it is under 100 nM.
For the compound `Cc1nc(N2CC(C)(OC(F)(F)F)C2)sc1Oc1ccc(-n2ncn(Cc3c(F)cccc3F)c2=O)cc1` [Example 57, 4-(2,6-difluorobenzyl)-2-(4-((4-methyl-2-(3-methyl-3-(trifluoromethoxy)azetidin-1-yl)thiazol-5-yl)oxy)phenyl)-2,4-dihydro-3H-1,2,4-triazol-3-one], where the note is “Homo sapiens”, the IC50 is under 100 nM.
Same read-out and setting: to `Cc1ncsc1Cc1ccc(-n2ncn(Cc3c(F)cccc3F)c2=O)cc1F` [Example 59, 4-(2,6-difluorobenzyl)-2-(3-fluoro-4-((4-methylthiazol-5-yl)methyl)phenyl)-2,4-dihydro-3H-1,2,4-triazol-3-one] belongs under 100 nM; to `Cc1nc(N2CCC(N)(C(F)(F)F)C2)sc1Cc1ccc(-n2ncn(Cc3c(F)cccc3F)c2=O)cc1F` (stereo not shown) [Example 60, 2-(4-((2-(3-amino-3-(trifluoromethyl)pyrrolidin-1-yl)-4-methylthiazol-5-yl)methyl)-3-fluorophenyl)-4-(2,6-difluorobenzyl)-2,4-dihydro-3H-1,2,4-triazol-3-one formate], under 100 nM.
For `Cc1nc(N2C[C@H](C#N)[C@@H]2C)sc1Cc1ccc(-n2ncn(Cc3c(F)cccc3F)c2=O)cc1F` [Example 61, (2S,3S)-1-(5-(4-(4-(2,6-difluorobenzyl)-5-oxo-4,5-dihydro-1H-1,2,4-triazol-1-yl)-2-fluorobenzyl)-4-methylthiazol-2-yl)-2-methylazetidine-3-carbonitrile formate], the IC50 (Homo sapiens) is under 100 nM.
Still for that read-out and setting: to `Cc1nc(N2CC(N)(CF)C2)sc1Cc1ccc(-n2ncn(Cc3c(F)cccc3F)c2=O)cc1F` [Example 62, 2-(4-((2-(3-amino-3-(fluoromethyl)azetidin-1-yl)-4-methylthiazol-5-yl)methyl)-3-fluorophenyl)-4-(2,6-difluorobenzyl)-2,4-dihydro-3H-1,2,4-triazol-3-one trifluoroacetate] belongs under 100 nM; to `Cc1nc(N2C[C@H](C#N)[C@@H]2C)sc1Cc1ccc(-n2ncn(Cc3c(F)cccc3F)c2=O)cc1` [Example 63, (2S,3S)-1-(5-(4-(4-(2,6-difluorobenzyl)-5-oxo-4,5-dihydro-1H-1,2,4-triazol-1-yl)benzyl)-4-methylthiazol-2-yl)-2-methylazetidine-3-carbonitrile], under 100 nM.
Turning to `Cc1nc(N2C[C@H](O)[C@@H]2C)sc1Cc1ccc(-n2ncn(Cc3c(F)cccc3F)c2=O)cc1` [Example 64, 4-(2,6-difluorobenzyl)-2-(4-((2-((2S,3S)-3-hydroxy-2-methylazetidin-1-yl)-4-methylthiazol-5-yl)methyl)phenyl)-2,4-dihydro-3H-1,2,4-triazol-3-one], for the setting “Homo sapiens”, the IC50 is under 100 nM.
Still for that read-out and setting: the figure for `Cc1nn(-c2ccc(Cc3ccccc3)cc2)c(=O)n1Cc1ccccc1` [Example 65, 4-benzyl-2-(4-benzylphenyl)-5-methyl-2,4-dihydro-3H-1,2,4-triazol-3-one] is under 100 nM; for `O=c1n(Cc2ccccc2)cnn1-c1ccc(Cc2ccccc2)cc1` [Example 66, 4-benzyl-2-(4-benzylphenyl)-2,4-dihydro-3H-1,2,4-triazol-3-one] it is under 100 nM; for `Cc1nn(-c2ccc(N(C)c3ccccc3)cc2)c(=O)n1Cc1ccccc1` [Example 67, 4-benzyl-5-methyl-2-(4-(methyl(phenyl)amino)phenyl)-2,4-dihydro-3H-1,2,4-triazol-3-one] it is 100 to 1000 nM.
Turning to `Cc1nc(N2CC(C(C)(C)N)C2)sc1Oc1ccc(-n2ncn(Cc3c(F)cccc3F)c2=O)cc1` [Example 68, 2-(4-((2-(3-(2-aminopropan-2-yl)azetidin-1-yl)-4-methylthiazol-5-yl)oxy)phenyl)-4-(2,6-difluorobenzyl)-2,4-dihydro-3H-1,2,4-triazol-3-one], the IC50 (Homo sapiens) is under 100 nM.
The same measure, in the same setting: the figure for `Cc1nc(N2C[C@@H](N)[C@@H]2C)sc1Oc1ccc(-n2ncn(Cc3c(F)cccc3F)c2=O)cc1` [Example 69, 2-(4-((2-((2S,3R)-3-amino-2-methylazetidin-1-yl)-4-methylthiazol-5-yl)oxy)phenyl)-4-(2,6-difluorobenzyl)-2,4-dihydro-3H-1,2,4-triazol-3-one] is under 100 nM.
As for `Cc1nc(N2CC[C@@H]2CN)sc1Oc1ccc(-n2ncn(Cc3c(F)cccc3F)c2=O)cc1` [Example 70, (R)-2-(4-((2-(2-(aminomethyl)azetidin-1-yl)-4-methylthiazol-5-yl)oxy)phenyl)-4-(2,6-difluorobenzyl)-2,4-dihydro-3H-1,2,4-triazol-3-one], for the setting “Homo sapiens”, the IC50 is under 100 nM.
On the same count and under the same terms, to `Cc1nc(N2CC(N)(CO)C2)sc1Oc1ccc(-n2ncn(Cc3c(F)cccc3F)c2=O)cc1` [Example 71, 2-(4-((2-(3-amino-3-(hydroxymethyl)azetidin-1-yl)-4-methylthiazol-5-yl)oxy)phenyl)-4-(2,6-difluorobenzyl)-2,4-dihydro-3H-1,2,4-triazol-3-one] belongs under 100 nM.
As to `Cc1nc(N2C[C@@H](N)[C@@H]2C)sc1Oc1ccc(-n2ncn(Cc3c(F)cccc3F)c2=O)cc1` [Example 72, 2-(4-((2-((2S,3R)-3-amino-2-methylazetidin-1-yl)-4-methylthiazol-5-yl)oxy)phenyl)-4-(2,6-difluorobenzyl)-2,4-dihydro-3H-1,2,4-triazol-3-one], the IC50 is under 100 nM.
For the compound `Cc1nc(N2C[C@H](N)[C@@H]2C)sc1Oc1ccc(-n2ncn(Cc3c(F)cccc3F)c2=O)cc1` [Example 73, 2-(4-((2-((2S,3S)-3-amino-2-methylazetidin-1-yl)-4-methylthiazol-5-yl)oxy)phenyl)-4-(2,6-difluorobenzyl)-2,4-dihydro-3H-1,2,4-triazol-3-one], for the setting “Homo sapiens”, the IC50 was under 100 nM.
Still for that read-out and setting: the figure for `CCOC1CN(c2nc(C)c(Oc3ccc(-n4ncn(Cc5c(F)cccc5F)c4=O)cc3)s2)C1` [Example 74, 4-(2,6-difluorobenzyl)-2-(4-((2-(3-ethoxyazetidin-1-yl)-4-methylthiazol-5-yl)oxy)phenyl)-2,4-dihydro-3H-1,2,4-triazol-3-one] is under 100 nM; for `Cc1nc(N2CC3(CCOCC3)C2)sc1Oc1ccc(-n2ncn(Cc3c(F)cccc3F)c2=O)cc1` [Example 75, 4-(2,6-difluorobenzyl)-2-(4-((4-methyl-2-(7-oxa-2-azaspiro[3.5]nonan-2-yl)thiazol-5-yl)oxy)phenyl)-2,4-dihydro-3H-1,2,4-triazol-3-one] it is under 100 nM.
The same measure, in the same setting: the figure for `Cc1nc(N2C[C@@H](O)CC2=O)sc1Oc1ccc(-n2ncn(Cc3c(F)cccc3F)c2=O)cc1F` [Example 76, (S)-4-(2,6-difluorobenzyl)-2-(3-fluoro-4-((2-(4-hydroxy-2-oxopyrrolidin-1-yl)-4-methylthiazol-5-yl)oxy)phenyl)-2,4-dihydro-3H-1,2,4-triazol-3-one] is under 100 nM.
As to `N#Cc1cnc(Oc2ccc(-n3ncn(Cc4c(F)cccc4F)c3=O)cc2)s1` [Example 77, 2-(4-(4-(2,6-difluorobenzyl)-5-oxo-4,5-dihydro-1H-1,2,4-triazol-1-yl)phenoxy)thiazole-5-carbonitrile], where the note is “Homo sapiens”, the IC50 fell in the range of 100 to 1000 nM.
With `Cc1nc(Oc2ccc(-n3ncn(Cc4c(F)cccc4F)c3=O)cc2)sc1C` [Example 78, 4-(2,6-difluorobenzyl)-2-(4-((4,5-dimethylthiazol-2-yl)oxy)phenyl)-2,4-dihydro-3H-1,2,4-triazol-3-one], under “Homo sapiens”, the IC50 lay in the range of 100 to 1000 nM.
As to `N#Cc1ncc(Oc2ccc(-n3ncn(Cc4c(F)cccc4F)c3=O)cc2)s1` [Example 79, 5-(4-(4-(2,6-difluorobenzyl)-5-oxo-4,5-dihydro-1H-1,2,4-triazol-1-yl)phenoxy)thiazole-2-carbonitrile], for the setting “Homo sapiens”, the IC50 was under 100 nM.

(Values after US20250179061A1 (SIRONAX LTD., priority 2022, published 2025).)
